{"source": "patent US11028127B2", "about": "“Peptides capable of reactivating p53 mutants” (Yeda Research and Development Co. Ltd., priority 2013, dated 2021)", "key": {"[1]": {"test_system": "Mut-p53-expressing human cancer cell lines", "experiment": "Crystal violet viability assay on further cell lines", "type": "cell-based", "details": "cell line not stated", "description": "Cells were cultured in 96 wells plates with 2500-4000 cells/well in 0.1 ml and incubated overnight at 37° C. in order to adhere to the plate. Serial dilutions of different peptides (0.5 μg/ml) were added in 0.1 ml aliquots and the plates incubated for additional 48 h at 37° C. Then medium was removed and cell lysis was determined by staining the cells with crystal violet (0.5%) in methanol/water (1:4, v/v), 50 μl each well, for 10 min, followed by 3 washes with PBS. Afterwards, 10% acetic acid (50 μl) was added to each well and shaken for 10 min. Then, automatic plate reading was performed at 595 nm.\nAn important indication for the reactivating peptides activity is their effect in-vivo on cancer cells that express Mut-p53. In particular, reactivating peptides that can cause specifically Mut-p53-dependent death of cancer cells, with minimal toxic effects on normal cells are desired. A crystal-violet based viability assay, in which crystal-violet is employed to stain cells that adhere to the plate and therefore the amount of dye is proportional to cell number was used to determine the effect of the various test peptides on Mut-p53-dependent death.\nCells were plated in 96-well plates, at calibrated density that allows them to grow for 48 hours without reaching confluence. Peptides are added 6 hours later. […]"}, "[2]": {"biological_target": "T1, Mut-p53 (R175H p53) (Homo sapiens, UniProt P04637, R175H)", "T1 construct": "a hot spot full length mutant p53 Mut-p53 R175H (R175H p53); expressed in transfected cells; host or cells: H1299 (p53-null) cells stably overexpressing R175H p53; cell extract", "experiment": "p53/DNA binding ELISA kit (R&D), binding to p53-RE DNA", "type": "biochemical", "details": "H1299-R175H p53 cell extracts, vs background (NT)", "source_text": "A commercial p53/DNA binding kit (R&D) was used, according to manufacturer instructions. Briefly, 96 well plates were coated with anti-p53 antibody overnight. Cell extracts containing p53 were reacted with an oligonucleotide that contains a p53 consensus binding site, labeled with biotin, in the presence or absence (NT) of test peptides. WT p53 is expected to bind this DNA binding site as well as to the antibody coating the test wells of the plate. Excess p53 and oligos are washed away and streptavidin-HRP is used to quantify the amount of oligos in the well, which is proportional to the DNA bound by p53. TMB assay was performed to determine HRP levels (450 nm). The results are presented as relative absorbance (at 450 nm) (Y-Axis) of each tested sample. MCF7 and the H1299-Mut-p53 (ts) A135V cells serve as positive controls for WT p53.\nFor these experiments, a commercial p53/DNA binding kit of “R&D” (Cat-DYC1355-5 Lot-1273366FA) was used, in accordance with manufacturer guide lines. Briefly, 96 well plates are coated with anti-p53 antibody overnight. Cell extracts containing p53 are reacted with an oligonucleotide that contains a p53 consensus binding site (provided in the kit), labeled with biotin, in the presence or absenc.\ne (NT) of test peptides. WT p53 is expected to bind this DNA binding site as well as to the antibody coating the test wells of the plate. Excess p53 and oligos were washed away and streptavidin-HRP was used to quantify the amount of oligos in the well, which is proportional to the DNA bound by p53. TMB assay was performed to determine HRP (ES001-1L-K) levels (450 nm).\nTo measure the effect of the tested peptides on DNA binding of Mut-p53, a commercial ELISA kit, (R&D Systems DYC1355-5, Lot-1273366FA), was used as a high-throughput assay to quantify p53 activation. This kit uses a 96-well plate format. The kit was used according to manufacturer's instructions. Wells were coated with anti-p53 antibody overnight. Cell extracts containing p53 were reacted with a biotin labeled oligonucleotide containing a p53 consensus binding site (included in the kit). WT p53 is expected to bind this oligo as well as the antibody coating the wells. Excess p53 and oligo were washed away in wash buffer (0.05% Tween 20 in PBS, pH 7.2-7.4; R&D Systems, Catalog #WA126). Then, streptavidin-HRP (R&D Systems, Part 890803, provided in the kit) was added for 15-45 min to quantify the amount of oligo in the well, which is proportional to the DNA bound by p53. If the addition of a peptide to Mut-p53 extracts increases ELISA reading compared to background, this peptide is considered as functionally effective and may be selected for further analysis. […] As with the conformational screening, MCF7 and the H1299-Mut-p53 (ts) A135V cells served as positive controls for WT p53. Extracts were added to the wells coated with αp53-Ab, and after several washing steps, streptavidin-HRP was added for 1 hour, and then plates were washed again and TMB (substrate to HRP) assay was performed."}}}
{"sequence": "YRRLLIGMMWRRRRRRRRRRR [pCAP-68]", "values": [{"measurement": "effect on cell viability", "setting": "[1]", "value": "massive cell death"}, {"measurement": "binding of H1299-R175H p53 extracts to p53-RE DNA", "setting": "[2]", "value": "elevate the binding of H1299-R175H p53 extracts to p53-RE DNA"}]}
